Measured values published in US5069812A, “Bleach/builder precursors” (priority 1990, dated 1991).

Assays:
[1] = Stain bleaching on tea-stained cotton (Terg-O-Tometer wash, reflectance change); conditions: 40° C., 15 minutes, BC1 cloth, pH = 9.0-9.5, [precursor] = 6.2 × 10^-4 M, [H2O2] = 6.25 × 10^-3 M; corrected for H2O2 and detergent alone
Experimental: Typically, cotton test pieces (4 in.×4 in.) stained with the tea are washed in a Terg-O-Tometer in 1 l. of aqueous solution containing a given level of bleach precursor, hydrogen peroxide, buffer, and surfactant (generally sodium dodecylbenzenesulfonate).
Washes are carried out at 40° C. for 15 minutes. Stain bleaching is measured reflectrometrically using a Colorgard System/05 Reflectometer. Bleaching is indicated by an increase in reflectance, reported as ΔR. In general a ΔR of one unit is perceivable in a paired comparison while ΔR of two units is perceivable monadically. In reporting the reflectance change, the change in reflectance caused by general detergency and bleaching by the excess hydrogen peroxide has been accounted for. Thus ΔR can actually be expressed as: ΔR=(the value of the Reflectance of stained fabric washed with precursor, H2 O2 and detergent minus the value of the Reflectance of stained fabric before washing) minus (the value of the Reflectance of stained fabric washed with H2 O2 and detergent alone minus the value of the Reflectance of stained fabric before washing).
The formulation of the detergent base used for the bleaching test is as follows: […]

[2] = Peracid generation from precursors (perhydrolysis yield); conditions: 40° C., [BPD] = 6.24 × 10^-4 M, [H2O2] = 6.24 × 10^-3 M
Experimental: The precursors described herein can be used to generate peroxycarbonic acid bleaches in basic aqueous solution containing a source of hydrogen peroxide and, optimally, may contain typical detergent ingredients. […] The hydrogen peroxide source is added just prior to addition of the precursor. Ten milliliter aliquots of solution are withdrawn from the beaker at regular intervals and are added to a 250 ml titration flask containing crushed ice (150 g), glacial acetic acid (30 ml) and 4% aqueous potassium iodide (5 ml). After development for ten minutes with occasional agitation, the iodine produced is titrated with standard sodium thiosulfate solution. Time zero is taken as the point of introduction of precursor into the peroxyide solution. Precursor perhydrolysis experiments are generally carried out for a maximum of 15 minutes.
Since hydrogen peroxide itself contributes to the total active oxygen in these titrations, controls or "blanks" are obtained by carrying out a perhydrolysis experiment in the absence of precursor. These hydrogen peroxide blanks are subtracted from the total active oxygen titration in the presence of bleach precursor to give the level of active oxygen produced by precursor perhydrolysis.
Peroxycarbonic acid generation is determined at pH 8, 9, and 10. Borax buffer is used for experiments at pH 9 and 10 while phosphate buffer is employed for experiments carried out at pH 8. Adjustment of the buffer systems at 40° C. to the exact pH is carried out with 1M hydrochloric acid or sodium hydroxide solution.

[3] = Determination of calcium binding (Ca ion selective electrode titration); type: physicochemical; conditions: pH 10, 0.05 g/l solution, ionic strength 0.02-0.03M (NaCl), titrated with 0.02M CaCl2
Experimental: Calcium binding data was obtained at a pH of 10 by titrating 100 ml of 0.05 g/l precursor solution at an ionic strength of 0.02-0.03M (NaCl) with a 0.02M CaCl2 solution. A Radiometer calcium ion selective electrode was used to measure free Ca^++ ion concentration of the solutions. Data was corrected for dilution during each titration.

[4] = Biodegradability (statement, no test described); conditions: chelidamic acid moiety

| SMILES | Bleaching Performance Δ R [1] | Binding Constants Log KCa [3] | other results |
| --- | --- | --- | --- |
| O=C(Oc1cc(C(=O)O)nc(C(=O)O)c1)c1ccccc1.[Na].[Na] [BPD, Disodium, 4-Benzoyloxy-2,6-Pyridinedicarboxylic Acid] | > 6.0 | – | Perhydrolysis yields from BPD (peroxycarbonic acid yield as a percent of theoretical), 1 minute ([2]; pH 10, 1 minute): 91.35%; Perhydrolysis yields from BPD (peroxycarbonic acid yield as a percent of theoretical), 8 minutes ([2]; pH 10, 8 minutes): 17.63%; Perhydrolysis yields from BPD (peroxycarbonic acid yield as a percent of theoretical), 15 minutes ([2]; pH 10, 15 minutes): 0% |
| O=C(Oc1cc(C(=O)O)nc(C(=O)O)c1)c1cccc(CCl)c1 [CBPD, Disodium, 4-(3-Chloromethyl)benzoyloxy-2,6-Pyridinedicarboxylic Acid] | > 6.0 | – | – |
| C[N+](C)(C)CCOC(=O)Oc1cc(C(=O)O)nc(C(=O)O)c1 [CCPD, Disodium, 4-Choline Carbonate-2,6-Pyridinedicarboxylic Acid] | > 15.0 | – | – |
| O=C(O)c1cc(O)cc(C(=O)O)n1 [Chelidamic Acid, 1,4-Dihydro-4-oxo-2,6-pyridine dicarboxylic acid] | – | 5.70 | biodegradability [4]: biodegradable |
| O=P(O)(O)OP(=O)(O)OP(=O)(O)O [Sodium Tripolyphosphate] | – | 5.85 | – |
